Test results from US20160199517A1, “MRI EVALUATION OF HETEROGENEOUS TISSUE” (The Board of Trustees of the Leland Stanford Junior …, priority 2015, published 2016).

System: Ca^2+ channel
Assay: MEMRI signal modulated by Ca2+ channel activity in single cell culture
Assay type: cell-based, human
Settings: cells labelled with Mn^2+; Ca^2+ channel antagonist or agonist

Substance: (s)-Bay K8644
- MEMRI signal: increased
